The source of these data is US12509461B2, “Enhanced performance of amorphous solid and solubilized formulations for achieving therapeutic plasma concentrations” (BRISTOL-MYERS SQUIBB COMPANY, priority 2019, dated 2025).

A short description of series [1]: Aqueous solubility and ionization of Compound (I). The class given is physicochemical. An excerpt: [drawing 2] and is referred to herein as “Compound (I)”. Compound (I), a process to prepare Compound (I), and methods of treatment employing Compound (I) are disclosed in U.S. Patent Application Publication No. 2016/0096839, which is assigned to the present assignee and incorporated herein by reference in its entirety. […] These characteristics of Compound (I) render it difficult to formulate for oral administration to achieve therapeutically effective blood levels.

The nature of series [2]: Microcentrifuge dissolution test in 0.5% SIF in PBS pH 6.5. The class given is physicochemical. The conditions noted are these: control; 1000 μg/mL if all of drug had dissolved. On the procedure:
Microcentrifuge dissolution tests were performed in a 37° C. temperature-controlled box. Weighed 1 mg of sample into each of two 2.0 mL Sorenson microcentrifuge tubes. Added 1.8 mL of 0.5% SIF in phosphate buffered saline (PBS) (pH 6.5) to each tube and started the timer. Vortexed the samples for 1 minute on Setting 8 on a Fisher Vortex Genie 2. Centrifuged the samples for 1 minute at 13,000 rpm using an IEC Micromax microcentrifuge. When the timer reads 4 minutes, extracted 50 μL of supernatant from each microcentrifuge tube into a HPLC vial containing 250 μL of diluent (HPLC-grade 95:5 THF:Water). Vortexed the mixtures for 25 seconds. Repeated the steps for following time points: 10, 20, 40, and 90 minutes, and again at 20 hours.
Analyzed the samples by HPLC using the method below:
As a control, crystalline Compound (I) alone was evaluated using the same procedure. A sufficient amount of material was added so that the concentration of Compound (I) would have been 1000 μg/mL, if all of drug had dissolved.
The concentrations of Compound (I) obtained in these samples were used to determine the maximum dissolved concentration of Compound (I) in solution during the first ninety minutes of the test (MDC90), the area under the concentration-versus-time curve during the initial ninety minutes (AUC90).

Regarding `C[C@@H]1CCC[C@H](n2cnc(-c3cc(Cl)ccc3-n3cc(Cl)nn3)cc2=O)c2cc(ccn2)-c2c(cnn2C(F)F)NC1=O` [Compound (I), (9R,13S)-13-{4-[5-chloro-2-(4-chloro-1H-1,2,3-triazol-1-yl)phenyl]-6-oxo-1,6-dihydropyrimidin-1-yl}-3-(difluoromethyl)-9-methyl-3,4,7,15-tetraazatricyclo[12.3.1.0^2,6]octadeca-1(18),2(6),4,14,16-pentaen-8-one], the ionization entry in series [1] (physiologically relevant region) is on record as “non-ionizable”. The aqueous solubility result in series [1] (room temperature) is given as “low aqueous solubility”.

In series [2], `C[C@@H]1CCC[C@H](n2cnc(-c3cc(Cl)ccc3-n3cc(Cl)nn3)cc2=O)c2cc(ccn2)-c2c(cnn2C(F)F)NC1=O` [Crystalline API, (9R,13S)-13-{4-[5-chloro-2-(4-chloro-1H-1,2,3-triazol-1-yl)phenyl]-6-oxo-1,6-dihydropyrimidin-1-yl}-3-(difluoromethyl)-9-methyl-3,4,7,15-tetraazatricyclo[12.3.1.0^2,6]octadeca-1(18),2(6),4,14,16-pentaen-8-one] displayed an AUC90 of 1810 µg/mL and a Cmax90 of 26000 ng/mL.
